Reference: publication PMC10653080, “Intermolecular Interactions, Solute Descriptors, and Partition Properties of Neutral Per- and Polyfluoroalkyl Substances (PFAS)” (Environmental Science & Technology, 2023)
Where two headings read alike, the source gives them in different places.

Assay: PP-LFER solute descriptor determination from GC retention and partition coefficient data
Format: physicochemical
Details: for Solute descriptor S (dipolarity/polarizability parameter): final adjusted value, shared within a PFAS group
Source text: The GC columns used were, from low to high polarity, HP-5ms Ultra Inert (poly[5% phenyl/95% methyl]siloxane equivalent; Agilent Technologies, Santa Clara, CA), DB-200 (poly[35% trifluoropropyl/65% methyl]siloxane; Agilent Technologies), DB-225ms (poly[50% cyanopropylphenyl/50% methyl]siloxane equivalent; Agilent Technologies), and SolGel-WAX (polyethylene glycol; Trajan, Ringwood, Australia). Column dimensions were all 30 m × 0.25 mm i.d. with a coating thickness of 0.25 μm.
The method for GC retention time measurements follows that of a previous study.[18] Briefly, a 7890A/5975C GC/MS instrument (Agilent Technologies) equipped with an MPS2 autosampler and CIS4 injector (Gerstel, Mülheim an der Ruhr, Germany) was used for all measurements. For each column, isothermal retention times were measured at four temperatures in the range of 30–120 °C to cover all target compounds. The temperature at the injector and transfer line was fixed at 120 °C. The carrier gas was He at a flow rate of 1.2 mL/min. Compounds were introduced into the GC by injecting either headspace (100–250 μL) above the pure compound or solution in acetone (1 μL). Split injections were performed with a split ratio of 20–250. Column dead time (t0) was determined by injecting air and measuring Ar (m/z 40). From the measured retention time (t), the retention factor (k) was calculated as k = (t–t0)/t0. Measurements with t < t0 + 0.1 min were considered too short and discarded. For each column and temperature, k values were obtained for 29–52 PFAS and 29–48 reference compounds.
The standard procedure for solute descriptor determination was as follows. First, the system parameters in eq 1 were calibrated for each column (or partition system) and temperature by MLR using log k (or log K) data and solute descriptors for reference compounds. Dimethylformamide, 1-pentylamine, dimethylsulfoxide, and dodecamethylcyclohexasiloxane (D6) were removed from the log k data sets, because they frequently appeared as outliers (>3 SD) of the PP-LFER model fit. Reference data sets for hexadecane/water partition coefficients (KHxd/w),[21]Kow,[22] and octanol/air partition coefficients (Koa)[23] were taken from the cited references and amended with data for organosilicon compounds.[24],[25] Similar to PFAS, organosilicon compounds have weak van der Waals interaction properties[9] and it may be beneficial to include them in reference data sets. The solute descriptors for PFAS were then back-calculated by using the calibrated PP-LFER equations. Of the five descriptors, V can be calculated from the molecular structure[26] (note: the fragment value for F from Goss et al.[11] was used), and L was available for the PFAS studied.[18] Thus, the left side of eq 2 was known, and MLR was performed to obtain S, A, and B on the right side. [drawing 2] 2 To determine the three descriptors, a minimum of three k and K data are required for a given PFAS compound. The data used here were: k measured for 60 PFAS in this study, KHxd/w for 21 PFAS,[5]Kow for 12 PFAS (see the Results and Discussion section), and Koa for 3 PFAS.[11]
Key to the accurate determination of the polar interaction descriptors is the availability of K data for partition systems with water as a partition phase because water is a strong H-bond donor and acceptor phase and thus the corresponding K values are sensitive to the H-bonding properties of the solute.[27] In particular, at least one solvent/water or air/water partition coefficient is required to determine B because there is no commonly used GC phase that is a significant H-bond donor. In the data set, KHxd/w is sensitive to both A and B and Kow is sensitive to B. However, KHxd/w and Kow data are not available for all PFAS. To increase the number of PFAS for which descriptors can be determined, the following assumptions were made. […]

[1] = 25 °C, updated in the iterative calculation

Row | Structure (SMILES) | Solute descriptor L (logarithmic hexadecane/air partition coefficient, KHxd/air) | Solute descriptor S (dipolarity/polarizability parameter) | Solute descriptor L (logarithmic hexadecane/air partition coefficient, KHxd/air) [1]
1 | CCN(CCO)S(=O)(=O)C(F)(F)C(F)(F)C(F)(F)C(F)(F)C(F)(F)C(F)(F)C(F)(F)C(F)(F)F [EtFOSE, N-Ethylperfluorooctanesulfonamidoethanol] | 6.253 | 1.00 | 
2 | C=CC(F)(F)C(F)(F)C(F)(F)C(F)(F)C(F)(F)C(F)(F)F [6:2 FTO, 1H,1H,2H-Perfluoro-1-octene] |  | 0.11 | 2.022
3 | FC(OC(F)(F)C(F)(OC(F)(F)C(F)(OC(F)(F)C(F)(OC(F)(F)C(F)(F)C(F)(F)F)C(F)(F)F)C(F)(F)F)C(F)(F)F)C(F)(F)F (centres unmarked) [FE-E4, 1,1,1,2,4,4,5,7,7,8,10,10,11,13,13,14,14,15,15 ,15-Eicosafluoro-5,8,11-tris(trifluoromethyl)-3,6,9,12-tetraoxapentadecane] | 2.542 | -0.55 | 
4 | FC(F)(F)C(F)(F)C(F)(F)C(F)(F)C(F)(F)C(F)(F)CCI [6:2 FTI, 1H,1H,2H,2H-Perfluorooctyl iodide] |  | 0.32 | 3.892
5 | C=Cc1ccc(C(F)(F)C(F)(F)C(F)(F)C(F)(F)C(F)(F)C(F)(F)C(F)(F)C(F)(F)F)cc1 [PFOSt, 4-(Perfluorooct-1-yl)styrene] | 5.645 | 0.32 | 
6 | FC(F)(F)C(F)(F)C(F)(F)C(F)(F)C(F)(F)C(F)(F)C(F)(F)I [PFHpI, Perfluoroheptyl iodide] |  | 0.07 | 2.792
7 | C=CC(F)(F)C(F)(F)C(F)(F)C(F)(F)F [4:2 FTO, 1H,1H,2H-Perfluoro-1-hexene] |  | 0.11 | 1.451
8 | CCNS(=O)(=O)C(F)(F)C(F)(F)C(F)(F)C(F)(F)C(F)(F)C(F)(F)C(F)(F)C(F)(F)F [EtFOSA, N-Ethylperfluorooctanesulfonamide] | 4.967 | 0.88 | 
9 | OCc1ccc(CCC(F)(F)C(F)(F)C(F)(F)C(F)(F)C(F)(F)C(F)(F)F)cc1 [6:2 FTBnOH, 4-(1H,1H,2H,2H-Perfluorooctyl)benzyl alcohol] |  | 0.75 | 6.656
10 | C=CC(F)(F)C(F)(F)C(F)(F)C(F)(F)C(F)(F)C(F)(F)C(F)(F)C(F)(F)C(F)(F)C(F)(F)F [10:2 FTO, 1H,1H,2H-Perfluoro-1-dodecene] | 3.031 | 0.11 | 
11 | C=CC(=O)OCCC(F)(F)C(F)(F)C(F)(F)C(F)(F)C(F)(F)C(F)(F)F [6:2 FTAC, 1H,1H,2H,2H-Perfluorooctyl acrylate] |  | 0.54 | 4.098
12 | FC(OC(F)(F)C(F)(OC(F)(F)C(F)(OC(F)(F)C(F)(F)C(F)(F)F)C(F)(F)F)C(F)(F)F)C(F)(F)F (centres unmarked) [FE-E3, 1,1,1,2,2,3,3-Heptafluoro-3-[(1,1,1,2,3,3-hexafluoro-3-{[1,1,1,2,3,3-hexafluoro-3-(1,2,2,2-tetrafluoroethoxy)-2-propanyl]oxy}-2-propanyl)oxy]propane] | 1.899 | -0.33 | 
13 | C=CCOC(F)(C(F)(F)F)C(F)(F)F [APFIPE, Allyl perfluoroisopropyl ether] |  | 0.15 | 1.717
14 | FC(F)(F)C(F)(I)OC(F)(F)C(F)(F)C(F)(F)F (centres unmarked) [FE-E1-I, 1-(Heptafluoropropoxy)-1,2,2,2-tetrafluoro-1-iodoethane] |  | 0.06 | 1.937
15 | CNS(=O)(=O)C(F)(F)C(F)(F)C(F)(F)C(F)(F)C(F)(F)C(F)(F)C(F)(F)C(F)(F)F [MeFOSA, N-Methylperfluorooctanesulfonamide] |  | 0.88 | 4.703
16 | CN(CCO)S(=O)(=O)C(F)(F)C(F)(F)C(F)(F)C(F)(F)C(F)(F)C(F)(F)C(F)(F)C(F)(F)F [MeFOSE, N-Methylperfluorooctanesulfonamidoethanol] | 5.909 | 1.00 | 
17 | FC(F)(F)C(F)(F)C(F)(F)C(F)(F)I [PFBI, Perfluorobutyl iodide] |  | 0.07 | 1.939
18 | FC(F)(F)C(F)(F)C(F)(F)N(C(F)(F)C(F)(F)C(F)(F)F)C(F)(F)C(F)(F)C(F)(F)F [PFTPrA, Perfluorotripropyl amine] |  | -0.26 | 1.521
19 | FC(F)(F)C(F)(F)C(F)(F)C(F)(F)C(F)(F)C(F)(F)C(F)(F)C(F)(F)CCI [8:2 FTI, 1H,1H,2H,2H-Perfluorodecyl iodide] |  | 0.32 | 4.455
20 | O=S(=O)(F)C(F)(F)C(F)(F)C(F)(F)C(F)(F)F [PFBSF, Perfluorobutanesulfonyl fluoride] |  | 0.16 | 1.278
21 | C=CC(F)(F)C(F)(F)C(F)(F)C(F)(F)C(F)(F)C(F)(F)C(F)(F)C(F)(F)C=C [1,8-DVPFO, 1,8-Divinylperfluorooctane] |  | 0.44 | 3.927
22 | FC(F)(F)C(F)(F)C(F)(F)C(F)(F)CCI [4:2 FTI, 1H,1H,2H,2H-Perfluorohexyl iodide] |  | 0.32 | 3.325
23 | CNS(=O)(=O)C(F)(F)C(F)(F)C(F)(F)C(F)(F)C(F)(F)C(F)(F)F [MeFHxSA, N-Methylperfluorohexanesulfonamide] |  | 0.88 | 4.135
24 | FC(F)(F)C(F)(F)C(F)(F)C(F)(F)C(F)(F)C(F)(F)C(F)(F)C(F)(F)C(F)(F)C(F)(F)CCI [10:2 FTI, 1H,1H,2H,2H-Perfluorododecyl iodide] | 5.020 | 0.32 | 
25 | C=C(C)C(=O)OCCC(F)(F)C(F)(F)C(F)(F)C(F)(F)C(F)(F)C(F)(F)F [6:2 FTMAC, 1H,1H,2H,2H-Perfluorooctyl methacrylate] |  | 0.53 | 4.553
26 | CCN(CCO)S(=O)(=O)C(F)(F)C(F)(F)C(F)(F)C(F)(F)C(F)(F)C(F)(F)F [EtFHxSE, N-Ethylperfluorohexanesulfonamidoethanol] |  | 1.00 | 5.685
27 | FC(F)(F)C(F)(F)C(F)(F)C(F)(F)C(F)(F)C(F)(F)C(F)(F)C(F)(F)C(F)(F)C(F)(F)C(F)(F)C(F)(F)F [PFDoD, Perfluorododecane] | 2.362 | -0.19 | 
28 | FC(F)(F)C(F)(F)C(F)(F)C(F)(F)C(F)(F)C(F)(F)C(F)(F)C(F)(F)I [PFOI, Perfluorooctyl iodide] |  | 0.07 | 3.068
